The results in this text go back to PMC2921341, “Interaction of Serum- and Glucocorticoid Regulated Kinase 1 (SGK1) with the WW-Domains of Nedd4-2 Is Required for Epithelial Sodium Channel Regulation” (PLoS ONE, 2010).

This test relates to SGK. As to the kind of experiment: GST pulldown of SGK from COS7 lysate with WW-domain GST fusion proteins. The format is binding, human. The conditions noted are these: GST fusion on glutathione-Sepharose, COS7 lysate with SGK-FLAG or ΔN60SGK-HA, 3 h at 4°C, western blot, n = 7. Here is the method:
In order to better understand the molecular nature of the interaction between Nedd4-2 and SGK, in vitro GST pulldown studies were performed. […] Individual WW-domains of Nedd4-2 or Nedd4, or combinations of Nedd4-2 WW-domains, were expressed as GST fusion proteins and purified on glutathione-Sepharose beads. Lysates of COS7 cells expressing SGK or ΔN60-SGK (both SGK constructs gave the same results) were incubated with the WW-domain fusion proteins or GST alone. Bound SGK was detected by western blotting with anti-FLAG/HA.
pGEX-KG containing the cDNA of WW-domains of Nedd4 and Nedd4-2 or the empty vector were transformed into Escherichia coli strain BL21, and expression of the WW-domains-GST fusion protein or GST alone was induced with 0.5 µM isopropyl-D-1-thiogalactopyranoside for 3 h at 37°C. Bacteria were lysed using BugBuster (Novagen, Merck KGaA, Darmstadt, Germany), and the GST fusion proteins were purified on glutathione-Sepharose beads (GE Healthcare, Little Chalfont, Bucks, U.K.). COS7 cells were transiently transfected with pMT3 containing SGK/SGKS422D-FLAG or ΔN60SGK-HA. […] The glutathione-Sepharose beads, along with the fusion proteins and any binding proteins, were collected by centrifugation (1 min, 16,000 g), washed extensively in T-TBS and analyzed by SDS-PAGE and Western blotting using anti-FLAG antibody. Resulting X-ray films were analyzed densitometrically.
(In general: In western blotting, separated proteins are transferred to a membrane and probed.)

Regarding “Nedd4 WW3: WW-domain 3 of Nedd4 (GFLPKGWEVRHAPNGRPFFIDHNTKTTTWEDPRL; left off: GST, end not stated, cleaved)”, the “binding to SGK in GST pulldown (in words)” value is recorded as “interact with SGK”.

On to “Nedd4 WW1: WW-domain 1 of Nedd4, GST fusion (SPLPPGWEERQDILGRTYYVNHESRRTQWKRPTP; left off: GST, end not stated, kept)”, for which the “binding to SGK in GST pulldown (in words)” value is on record as “interact with SGK”.
